The record followed here is patent US6534515B2, “20,21-dinor-eburnamenines” (Aventis Pharma S.A., priority 1989, dated 2003).

Assay [1] deals with male mice of CD1 CHARLES RIVER type. The experiment in a line: Hypobaric anoxia survival time in mice. It counts as in vivo. The note with it: intra-peritoneally 10 mg/kg, 60 minutes before the test, pressure drop of 630 mm Hg, relative to control animals. As for the experimental part: Male mice of CD1 CHARLES RIVER type weighing 20 to 25 grams having gone without food for 6 hours were placed in a 2-liter chamber in which a pressure drop of 630 mm Hg was carried out according to the following kinetics:
The survival time was measured from the time TO and over a maximum time of 3 minutes and it was about 70 seconds for the control animals. The rectal temperature was measured immediately before the determination of the survival time. The products were administered intra-peritoneally at a dose of 10 mg/kg and in a volume of 10 ml/kg 60 minutes before the test and the control animals received the vehicle. The results were determined as a percentage of increase in the survival time relative to the control animals.

Assay [2] has as its system adrenergic alpha2 receptors. The assay is described as follows: Affinity for the adrenergic alpha 2 receptors (3H rauwolscine displacement, rat cortex membranes). The note with it: rat brain cortex membranes, 3H rauwolscine 0.15 nM, 45 minutes at 25° C.; CD/CX = concentrations of phentolamine/product inhibiting 50% of specific fixation. It is filed as binding. How it is done:
1) Affinity for the Adrenergic Alpha 2 Receptors:
10 cortices removed from the brains of male rats weighing an average of 150 g were homogenized in 90 ml of 0.32 M sucrose. After centrifuging 1000 g of the homogenized mixture, for 10 minutes at 0° C.+4° C., the deposit was suspended in 240 ml of 50 mM Tris HCl pH 7.7 buffer, and centrifuged at 30,000 g for 15 minutes at 0°+4° C. The new deposit was suspended in 480 ml of 50 mM NaKPO4 pH 7.4 buffer. Then, 2 ml of suspension were incubated for 45 minutes at 25° C. in the presence of ^3H rauwolscine at a concentration of 0.15 nM:
I) alone or II) with increasing concentrations of the product under test or, III) to determine the non-specific fixation with non-radioactive phentolamine at a concentration of 10^−5M.
The incubated suspensionis were filtered on Whatman GF/C and the filters were washed three times with 5 ml of NaKPO4 pH 7.4 buffer at 0° C. The ratioactivity of the filters was measured by liquid scintillation. The affinity of the product tested for the adrenergic alpha2 receptors was determined relative to phentolamine as reference product.
CD=concentration of phentolamine inhibiting 50% of the specific fixation of ^3H rauwolscine,
CX=concentration of the product under test inhibiting 50% of the specific fixation of ^3H rauwolscine.
The relative affinity was calculated by the relation: […]

For the compound “[16α, (±)]-15-methyl-20,21-dinoreburnamenine [Example 5]”, in assay [1], the “% increase in survival time” value is 34%. The “ARL (relative affinity, from CD and CX, relative to phentolamine as reference product)” value in assay [2] is 456. As to “[16α, (±)-20,21-dinoreburnamenin-15-methanol [Example 13]”, the “% increase in survival time” value in assay [1] stood at 11%. The “ARL (relative affinity, from CD and CX, relative to phentolamine as reference product)” value in assay [2] is given as 346.

In the case of “[16α, (±)]-N,N-dimethyl-20,21dinoreburnamenin-15-methanamine [Example 14]”, the “% increase in survival time” value in assay [1] stood at 12%.

As for `CC1=Cn2c3c(c4ccccc42)CCN2CCCC1C32` (stereo not drawn) [Example 7, (3-α)-15-methyl-20,21-dinoreburnameinine], the “ARL (relative affinity, from CD and CX, relative to phentolamine as reference product)” value in assay [2] turned out to be 980.

Turning to “[16α, (±)]-15-(1-propynyl)-20,21-dinoreburnamenine [Example 2]”, the “ARL (relative affinity, from CD and CX, relative to phentolamine as reference product)” value in assay [2] came out at 367. Turning to “Ethyl [16α, (±)]-20,21-dinoreburnamenine-15-acetate [Example 12]”, the “ARL (relative affinity, from CD and CX, relative to phentolamine as reference product)” value in assay [2] was 942. In the case of “[16α, (±)]-14,15-dihydro-15-methylene-20,21-dinorburnamenine [Example 11]”, in assay [2], the “ARL (relative affinity, from CD and CX, relative to phentolamine as reference product)” value was determined as 343.
